From PubChem BioAssay (NCI)
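1) Cells in 96-well plates. 2) Compound, 48 h, 5 concentrations. 3) Linear interpolation between surrounding doses. 4) Unreached endpoint = highest concentration. The concentration for full growth arrest is given as TGI.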

Tests used:
Assay in all cases: growth of human tumour cells (NCI), 48 h
[1] = tested on: NCI-H522 lung
[2] = tested on: MDA-MB-231 breast
[3] = tested on: OVCAR-8 ovarian
[4] = tested on: SK-MEL-28 melanoma
[5] = tested on: NCI/ADR-RES ovarian
[6] = tested on: NCI-H23 lung
[7] = tested on: MCF7 breast
[8] = tested on: HS 578T breast
[9] = tested on: U251 CNS
[10] = tested on: UACC-257 melanoma
[11] = tested on: 786-0 renal
[12] = tested on: OVCAR-3 ovarian
[13] = tested on: MDA-MB-435
[14] = tested on: K-562 leukemia
[15] = tested on: MOLT-4 leukemia
[16] = tested on: TK-10 renal
[17] = tested on: IGROV1 ovarian
[18] = tested on: HOP-92 NSCLC
[19] = tested on: SK-MEL-5 melanoma
[20] = tested on: CAKI-1 renal
[21] = tested on: OVCAR-4 ovarian
[22] = tested on: SN12C renal
[23] = tested on: NCI-H226 lung
[24] = tested on: HCC-2998 colon
[25] = tested on: LOX IMVI melanoma
[26] = tested on: SK-OV-3 ovarian
[27] = tested on: MDA-N
[28] = tested on: NCI-H460 lung
[29] = tested on: A498 renal
[30] = tested on: SF-295 CNS
[31] = tested on: PC-3 prostate
[32] = tested on: SR leukemia
[33] = tested on: BT-549 breast
[34] = tested on: MALME-3M melanoma
[35] = tested on: T-47D breast
[36] = tested on: HL-60(TB) leukemia
[37] = tested on: A549 NSCLC
[38] = tested on: HT29 colon
[39] = tested on: SF-539 CNS
[40] = tested on: SK-MEL-2 melanoma
[41] = tested on: SNB-19 CNS
[42] = tested on: EKVX NSCLC
[43] = tested on: ACHN renal
[44] = tested on: HOP-62 NSCLC
[45] = tested on: UO-31 renal
[46] = tested on: SW-620 colon
[47] = tested on: KM12 colon
[48] = tested on: SNB-75 CNS
[49] = tested on: HCT-116 colon
[50] = tested on: HCT-15 colon
[51] = tested on: RXF 393 renal
[52] = tested on: COLO 205 colon
[53] = tested on: M14 melanoma
[54] = tested on: DU-145 prostate
[55] = tested on: UACC-62 melanoma
[56] = tested on: CCRF-CEM leukemia
[57] = tested on: SF-268 CNS
[58] = tested on: OVCAR-5 ovarian
[59] = tested on: RPMI-8226 leukemia
[60] = tested on: DMS 273 small cell lung
[61] = tested on: XF 498 CNS
[62] = tested on: DLD-1 colon
[63] = tested on: SNB-78 CNS
[64] = tested on: KM20L2 colon
[65] = tested on: DMS 114 small cell lung
[66] = tested on: M19-MEL melanoma
[67] = tested on: LXFL 529 NSCLC
[68] = tested on: HOP-18 NSCLC

c1ccc(COC[C@H]2C3OCC([C@H](OCc4ccccc4)[C@H]3OCc3ccccc3)N2Cc2ccccc2)cc1 (stereo partly drawn)
TGI [1]: > 82 µM
TGI [2]: > 100 µM
TGI [3]: > 100 µM
TGI [4]: > 100 µM
TGI [5]: > 100 µM
TGI [6]: > 100 µM
TGI [7]: > 100 µM
TGI [8]: > 100 µM
TGI [9]: > 100 µM
TGI [10]: > 100 µM
TGI [11]: > 100 µM
TGI [12]: > 100 µM
TGI [13]: > 100 µM
TGI [14]: > 83 µM
TGI [15]: > 51.7 µM
TGI [16]: > 100 µM
TGI [17]: > 100 µM
TGI [18]: > 100 µM
TGI [19]: > 100 µM
TGI [20]: > 100 µM
TGI [21]: > 100 µM
TGI [22]: > 100 µM
TGI [23]: > 100 µM
TGI [24]: > 100 µM
TGI [25]: > 100 µM
TGI [26]: > 100 µM
TGI [27]: > 100 µM
TGI [28]: > 100 µM
TGI [29]: > 100 µM
TGI [30]: > 100 µM
TGI [31]: > 100 µM
TGI [32]: > 100 µM
TGI [33]: > 100 µM
TGI [34]: > 100 µM
TGI [35]: > 100 µM
TGI [36]: > 53.4 µM
TGI [37]: > 100 µM
TGI [38]: > 100 µM
TGI [39]: > 100 µM
TGI [40]: > 100 µM
TGI [41]: > 100 µM
TGI [42]: > 100 µM
TGI [43]: > 100 µM
TGI [44]: > 100 µM
TGI [45]: > 100 µM
TGI [46]: > 100 µM
TGI [47]: > 100 µM
TGI [48]: > 100 µM
TGI [49]: > 100 µM
TGI [50]: > 100 µM
TGI [51]: > 100 µM
TGI [52]: > 100 µM
TGI [53]: > 100 µM
TGI [54]: > 100 µM
TGI [55]: > 100 µM
TGI [56]: > 100 µM
TGI [57]: > 100 µM
TGI [58]: > 100 µM
TGI [59]: > 100 µM

COc1ccc(/C=C/c2nc(=S)[nH][nH]2)cc1OC
TGI [3]: > 100 µM
TGI [4]: > 100 µM
TGI [6]: > 100 µM
TGI [60]: > 100 µM
TGI [9]: > 100 µM
TGI [10]: > 100 µM
TGI [11]: > 100 µM
TGI [12]: > 100 µM
TGI [61]: > 100 µM
TGI [14]: > 100 µM
TGI [15]: > 100 µM
TGI [16]: > 100 µM
TGI [17]: > 100 µM
TGI [18]: > 100 µM
TGI [19]: > 100 µM
TGI [20]: > 100 µM
TGI [21]: > 100 µM
TGI [22]: > 100 µM
TGI [23]: > 100 µM
TGI [24]: > 100 µM
TGI [25]: > 100 µM
TGI [28]: > 100 µM
TGI [29]: > 100 µM
TGI [62]: > 100 µM
TGI [63]: > 100 µM
TGI [30]: > 100 µM
TGI [32]: > 100 µM
TGI [34]: > 100 µM
TGI [36]: > 100 µM
TGI [37]: > 100 µM
TGI [38]: > 100 µM
TGI [39]: > 100 µM
TGI [40]: > 100 µM
TGI [41]: > 100 µM
TGI [43]: > 100 µM
TGI [64]: > 100 µM
TGI [45]: > 100 µM
TGI [46]: > 100 µM
TGI [48]: > 100 µM
TGI [49]: > 100 µM
TGI [65]: > 100 µM
TGI [50]: > 100 µM
TGI [51]: > 100 µM
TGI [53]: > 100 µM
TGI [66]: > 100 µM
TGI [55]: > 100 µM
TGI [67]: > 100 µM
TGI [56]: > 100 µM
TGI [57]: > 100 µM
TGI [58]: > 100 µM
TGI [59]: > 100 µM

C/C(=C\CC/C=C(\C)CC/C=C(\C)CCC1SC1(C)C)CC/C=C(\C)CCC1OC1(C)C (stereo not drawn)
TGI [1]: > 100 µM
TGI [3]: > 100 µM
TGI [4]: > 100 µM
TGI [6]: > 100 µM
TGI [60]: > 100 µM
TGI [9]: > 100 µM
TGI [11]: > 100 µM
TGI [12]: > 100 µM
TGI [61]: > 100 µM
TGI [14]: > 100 µM
TGI [15]: > 100 µM
TGI [16]: > 100 µM
TGI [17]: > 100 µM
TGI [18]: > 100 µM
TGI [19]: > 100 µM
TGI [20]: > 100 µM
TGI [21]: > 100 µM
TGI [22]: > 100 µM
TGI [23]: > 100 µM
TGI [24]: > 100 µM
TGI [26]: > 100 µM
TGI [68]: > 100 µM
TGI [28]: > 100 µM
TGI [29]: > 100 µM
TGI [62]: > 100 µM
TGI [30]: > 100 µM
TGI [32]: > 100 µM
TGI [34]: > 100 µM
TGI [36]: > 100 µM
TGI [37]: > 100 µM
TGI [38]: > 100 µM
TGI [39]: > 100 µM
TGI [40]: > 100 µM
TGI [41]: > 100 µM
TGI [42]: > 100 µM
TGI [43]: > 100 µM
TGI [64]: > 100 µM
TGI [45]: > 100 µM
TGI [46]: > 100 µM
TGI [47]: > 100 µM
TGI [48]: > 100 µM
TGI [49]: > 100 µM
TGI [65]: > 100 µM
TGI [50]: > 100 µM
TGI [51]: > 100 µM
TGI [52]: > 100 µM
TGI [53]: > 100 µM
TGI [66]: > 100 µM
TGI [67]: > 100 µM
TGI [56]: > 100 µM
TGI [57]: > 100 µM
TGI [59]: > 100 µM

CC1OC(CC2C=CCc3c(O)c4c(c(O)c32)C(=O)c2ccccc2C4=O)CC(NC(=O)C(F)(F)F)C1O (stereo not drawn)
TGI [1]: 44.9 µM
TGI [3]: 15 µM
TGI [4]: 16.1 µM
TGI [6]: 20.7 µM
TGI [60]: 19.7 µM
TGI [9]: 15.4 µM
TGI [10]: 26.8 µM
TGI [11]: 23.2 µM
TGI [12]: 19.2 µM
TGI [61]: 14.6 µM
TGI [14]: 20.6 µM
TGI [15]: 22.5 µM
TGI [16]: 10.9 µM
TGI [17]: 44.6 µM
TGI [18]: 8.39 µM
TGI [19]: 27.3 µM
TGI [20]: 20.7 µM
TGI [21]: 11.7 µM
TGI [22]: 18.2 µM
TGI [23]: 31.6 µM
TGI [24]: > 100 µM
TGI [25]: 20.6 µM
TGI [26]: 24.6 µM
TGI [28]: 24.1 µM
TGI [29]: 16.5 µM
TGI [62]: 20 µM
TGI [63]: 14.9 µM
TGI [30]: 18 µM
TGI [32]: 13.5 µM
TGI [34]: 10.1 µM
TGI [36]: 26.7 µM
TGI [38]: 40.5 µM
TGI [39]: 15 µM
TGI [40]: 30.2 µM
TGI [41]: 18.7 µM
TGI [42]: 25.7 µM
TGI [43]: 25.1 µM
TGI [44]: 19 µM
TGI [64]: 55.3 µM
TGI [45]: 42.7 µM
TGI [46]: 81.5 µM
TGI [47]: 61.4 µM
TGI [48]: 5.8 µM
TGI [49]: 11.4 µM
TGI [65]: 26.8 µM
TGI [50]: 55.9 µM
TGI [51]: 7.77 µM
TGI [52]: 53.4 µM
TGI [53]: 16.1 µM
TGI [66]: 21.1 µM
TGI [55]: 17.4 µM
TGI [67]: 20.4 µM
TGI [56]: 20.7 µM
TGI [57]: 22.2 µM
TGI [58]: > 100 µM
TGI [59]: 28 µM
